The results in this text go back to patent US20240261248A1, “METHODS FOR TREATING AUTISM SPECTRUM DISORDERS (ASD)” (SK BIOPHARMACEUTICALS CO., LTD., priority 2021, published 2024).

Data set [1] deals with MeCP2 KO mice (HET). The data set can be described thus: Hindlimb clasping test in MeCP2 KO mice (HET). The data set is classed as in vivo, mouse. To be noted: 100 mg/kg, compared to vehicle-treated HET mice, FIG. 7.
Data set [2] has as its system MeCP2 KO mouse primary cortical neurons. The data set can be described thus: Morphological recovery of MeCP2 KO primary neuron: synaptogenesis and soma size (Synapsin-1, MAP2, Hoechst, DIV14). The data set is classed as cell-based. The conditions noted are these: Test compound 1000 nM from DIV1, analysed at DIV14. The method, then: (§1) MeCP2 KO mouse primary cortical neurons were cultured at PO and morphological change was analyzed via immunocytochemistry.
BDNF (50 ng/ml) or Test compound (1000 nM) was treated from DIV1 to indicated days. At DIV14, synaptogenesis and soma size were analyzed with Synapsin-1, MAP2 immunostaining and nuclear staining with Hoechst.

Data set [3] has the same test system. The data set can be described thus: Morphological recovery of MeCP2 KO primary neuron: neurite outgrowth (MAP2 immunostaining, DIV5). The data set is classed as cell-based. The conditions noted are these: Test compound 80 and 2000 nM from DIV1, analysed at DIV5; BDNF 50 ng/ml as comparator; FIG. 1. The method, then: as §1
BDNF (50 ng/ml) or Test compound (80 and 2000 nM) was treated from DIV1 to indicated days. At DIV5, the neurite outgrowth was analyzed with MAP2 immunostaining for analysis of neurite formation.

Data set [4] concerns MeCP2 KO mice (HET). In words: Accelerating rotarod test in MeCP2 KO mice (HET). It is filed as in vivo, mouse. To be noted: accelerating speed 0-40 rpm over 5 min, compared to vehicle-treated HET mice, FIG. 6. From the text: The rotarod test is widely used to evaluate the motor coordination of rodents, and is especially sensitive in detecting cerebellar dysfunction. The motor performance on the rotarod can be influenced by several factors, such as motor coordination, learning and cardiopulmonary endurance. Since several studies have shown that basal ganglia are essential in motor skill learning of serial motor sequence. The test measures parameters such as riding time (seconds) or endurance (RPM).
Mice were placed on the rotarod apparatus (Ugo basile, Italy) consisting of a rod that rotates at a constant or variable and accelerating speed of 4 rpm. Once a mouse loses its balance and falls onto an underlying platform, the timer automatically stops. Mice were exposed to the apparatus for 5 min training at a constant speed (4 rpm) and placed back on the rod after each fell. After a rest period of at least 1 hr, animals were placed back on the rotarod apparatus for testing. Once all animals in a test session were loaded on the rod, the rotarod apparatus was placed on accelerating speed (0-40 rpm) over 5 min and then the first falling time was recorded. The test was repeated three consecutive times per animal. For each test session, the RPM score at time of fall off the rod were recorded.
(In general: Falling from the rotarod earlier than controls is read as motor impairment.)

The nature of data set [5]: Body weight change in MeCP2 KO mice (HET). The data set is classed as in vivo, mouse. The conditions noted are these: 100 mg/kg po daily from about 5 weeks to 16 weeks old, FIG. 5. The method, then: Vehicle WT group: vehicle (0.9% saline, 10 ml/kg)
Vehicle HET group: vehicle (0.9% saline, 10 ml/kg)
Test compound HET group: 100 mg/kg, po in 0.9% saline
About 5 week old WT and HET mice were treated with daily oral injections of the vehicle or Test compound. Treatment conducted until the mice became 16 weeks old.

For data set [6], the system named is MeCP2 knockout mice (Null). The data set can be described thus: Survival rate test in MeCP2 knockout mice (Null). The data set is classed as in vivo, mouse. The method, then:
Vehicle Null group: vehicle (0.9% saline, 10 ml/kg)
Test compound Null group: 100 mg/kg, po in 0.9% saline
About 5 week old Null mice were treated with daily oral injections of the vehicle or Test compound. MeCP2 knockout mice (Null) survival rate test was conducted until all animals were dead.
ILS ([…])%: 100×(median survival days of test group-median survival days of vehicle group)/median survival days of vehicle group (FIG. 4).

As for `NC(=O)OC[C@H](N)Cc1ccccc1` [Test compound, (R)-(beta-amino-benzenepropyl) carbamate], the clasping result in data set [1] was “clasped less than vehicle-treated HET mice”. In addition, the synaptogenesis result in data set [2] (FIG. 2) was “significantly enhanced”. Besides, the soma size entry in data set [2] (FIG. 3) was “significantly enhanced”. Moreover, the “neurite length (neurite outgrowth)” value in data set [3] was “significantly enhanced the neurite length to a level similar to that of BDNF”. In data set [4], the “speed at fall (RPM score)” value is given as “fell at higher speeds” and the “time to fall off from the rod” value is “took more time to fall off from the rod”. Besides, in data set [5], the body weight change result is recorded as “did not affect the body weight change”. For the same compound, the “increase of ILS %” value in data set [6] (100 mg/kg po daily from about 5 weeks old, compared to vehicle-treated Null mice, FIG. 4) stood at 42.7%. In addition, the life span result in data set [6] (100 mg/kg po daily, vs vehicle, P<0.0046, Log lank test) is given as “significant enhancement of life span”.
